What was measured:
Test in all cases: relative viability (nuclei count vs DMSO), 5 days (fraction); higher = more cells survive
A-427 = system: A-427
Outline: (§1)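 After 5 days of treatment, lung cancer cells in 1536-well plates were fixed and stained in a single step (final 0.05% Triton X-100, 1% formaldehyde, 1 ug/ml Hoechst) and their nuclei counted on 4× images. Treatment had been applied by pin tool the day after seeding as one drug alone or as a fixed anchor-drug dose with five library-drug doses (not always all listed) in √10 steps. Relative viability is the nuclei count of treated wells divided by that of vehicle wells, and values are medians of duplicate plates.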

NCI-H2087 = system: NCI-H2087
Outline: as §1

NCI-H650 = system: NCI-H650
Outline: as §1

HCC-78 = system: HCC-78
Outline: as §1

HCC-44 = system: HCC-44
Outline: as §1

EPLC-272H = system: EPLC-272H
Outline: as §1

NCI-H1395 = system: NCI-H1395
Outline: as §1

LOU-NH91 = system: LOU-NH91
Outline: as §1

NCI-H1915 = system: NCI-H1915
Outline: as §1

NCI-H2023 = system: NCI-H2023
Outline: as §1

NCI-H661 = system: NCI-H661
Outline: as §1

NCI-H596 = system: NCI-H596
Outline: as §1

NCI-H838 = system: NCI-H838
Outline: as §1

NCI-H1650 = system: NCI-H1650
Outline: as §1

COR-L23 = system: COR-L23
Outline: as §1

NCI-H1734 = system: NCI-H1734
Outline: as §1

ChaGo-K-1 = system: ChaGo-K-1
Outline: as §1

NCI-H358 = system: NCI-H358
Outline: as §1

HCC-366 = system: HCC-366
Outline: as §1

NCI-H3122 = system: NCI-H3122
Outline: as §1

SK-MES-1 = system: SK-MES-1
Outline: as §1

EKVX = system: EKVX
Outline: as §1

HOP-62 = system: HOP-62
Outline: as §1

What does the source list for `Cc1cnc(-c2cnc(NCCNc3ccc(C#N)cn3)nc2-c2ccc(Cl)cc2Cl)[nH]1` + O=C(CCCCCCC(=O)Nc1ccccc1)NO [Vorinostat] (partner 1 µM)?
relative viability (A-427; first compound 0.08 µM): 0.868; relative viability (A-427; first compound 0.253 µM): 0.826; relative viability (A-427; first compound 0.8 µM): 0.826; relative viability (A-427; first compound 2.53 µM): 0.854; relative viability (NCI-H2087; first compound 0.08 µM): 0.871; relative viability (NCI-H2087; first compound 0.8 µM): 0.514; relative viability (NCI-H2087; first compound 2.53 µM): 0.663; relative viability (NCI-H650; first compound 0.08 µM): 0.544; relative viability (NCI-H650; first compound 0.253 µM): 0.423; relative viability (NCI-H650; first compound 0.8 µM): 0.4; relative viability (NCI-H650; first compound 2.53 µM): 0.443; relative viability (HCC-78; first compound 0.08 µM): 0.553; relative viability (HCC-78; first compound 0.253 µM): 0.438; relative viability (HCC-78; first compound 0.8 µM): 0.39; relative viability (HCC-78; first compound 2.53 µM): 0.427; relative viability (HCC-44; first compound 0.08 µM): 1.05; relative viability (HCC-44; first compound 0.253 µM): 1.16; relative viability (HCC-44; first compound 0.8 µM): 1.03; relative viability (HCC-44; first compound 2.53 µM): 1.24; relative viability (EPLC-272H; first compound 0.08 µM): 0.658; relative viability (EPLC-272H; first compound 0.8 µM): 0.531; relative viability (EPLC-272H; first compound 2.53 µM): 0.581; relative viability (NCI-H1395; first compound 0.08 µM): 0.847; relative viability (NCI-H1395; first compound 0.253 µM): 0.577; relative viability (NCI-H1395; first compound 0.8 µM): 0.62; relative viability (NCI-H1395; first compound 2.53 µM): 0.6; relative viability (LOU-NH91; first compound 0.08 µM): 0.972; relative viability (LOU-NH91; first compound 0.253 µM): 0.878; relative viability (LOU-NH91; first compound 0.8 µM): 0.942; relative viability (LOU-NH91; first compound 2.53 µM): 0.978; relative viability (NCI-H1915; first compound 0.08 µM): 0.532; relative viability (NCI-H1915; first compound 0.8 µM): 0.504; relative viability (NCI-H1915; first compound 2.53 µM): 0.513; relative viability (NCI-H2023; first compound 0.08 µM): 0.897; relative viability (NCI-H2023; first compound 0.253 µM): 0.473; relative viability (NCI-H2023; first compound 0.8 µM): 0.465; relative viability (NCI-H2023; first compound 2.53 µM): 0.731; relative viability (NCI-H661; first compound 0.08 µM): 0.906; relative viability (NCI-H661; first compound 0.253 µM): 0.774; relative viability (NCI-H661; first compound 0.8 µM): 0.782; relative viability (NCI-H661; first compound 2.53 µM): 0.731; relative viability (NCI-H596; first compound 0.08 µM): 0.544; relative viability (NCI-H596; first compound 0.253 µM): 0.568; relative viability (NCI-H596; first compound 0.8 µM): 0.501; relative viability (NCI-H596; first compound 2.53 µM): 0.688; relative viability (NCI-H838; first compound 0.08 µM): 0.726; relative viability (NCI-H838; first compound 0.253 µM): 0.723; relative viability (NCI-H838; first compound 0.8 µM): 0.856; relative viability (NCI-H838; first compound 2.53 µM): 1.06; relative viability (NCI-H1650; first compound 0.08 µM): 0.564; relative viability (NCI-H1650; first compound 0.253 µM): 0.508; relative viability (NCI-H1650; first compound 0.8 µM): 0.546; relative viability (NCI-H1650; first compound 2.53 µM): 0.661; relative viability (COR-L23; first compound 0.08 µM): 0.556; relative viability (COR-L23; first compound 0.253 µM): 0.42; relative viability (COR-L23; first compound 0.8 µM): 0.508; relative viability (COR-L23; first compound 2.53 µM): 0.505; relative viability (NCI-H1734; first compound 0.08 µM): 0.88; relative viability (NCI-H1734; first compound 0.253 µM): 0.693; relative viability (NCI-H1734; first compound 0.8 µM): 0.745; relative viability (NCI-H1734; first compound 2.53 µM): 0.661; relative viability (ChaGo-K-1; first compound 0.08 µM): 0.742; relative viability (ChaGo-K-1; first compound 0.253 µM): 0.649; relative viability (ChaGo-K-1; first compound 0.8 µM): 0.604; relative viability (ChaGo-K-1; first compound 2.53 µM): 0.664; relative viability (NCI-H358; first compound 0.08 µM): 0.787; relative viability (NCI-H358; first compound 0.253 µM): 0.686; relative viability (NCI-H358; first compound 0.8 µM): 0.69; relative viability (NCI-H358; first compound 2.53 µM): 0.585; relative viability (HCC-366; first compound 0.08 µM): 0.332; relative viability (HCC-366; first compound 0.253 µM): 0.24; relative viability (HCC-366; first compound 0.8 µM): 0.31; relative viability (HCC-366; first compound 2.53 µM): 0.369; relative viability (NCI-H3122; first compound 0.08 µM): 0.989; relative viability (NCI-H3122; first compound 0.8 µM): 0.934; relative viability (NCI-H3122; first compound 2.53 µM): 0.951; relative viability (SK-MES-1; first compound 0.08 µM): 1.07; relative viability (SK-MES-1; first compound 0.253 µM): 0.977; relative viability (SK-MES-1; first compound 0.8 µM): 1.19; relative viability (SK-MES-1; first compound 2.53 µM): 1.24; relative viability (EKVX; first compound 0.08 µM): 0.789; relative viability (EKVX; first compound 0.253 µM): 0.529; relative viability (EKVX; first compound 0.8 µM): 0.658; relative viability (EKVX; first compound 2.53 µM): 0.745; relative viability (HOP-62; first compound 0.08 µM): 0.733; relative viability (HOP-62; first compound 0.8 µM): 0.545; relative viability (HOP-62; first compound 2.53 µM): 0.594

From the supplement of paper PMC10307832
